Common to all, as to assay type: toxicity, cell-based
The test system of data set [1] is Fibroblast. Put plainly: Incucyte cell viability with human fibroblast. Particulars: 10 µM, compound concentration 10 uM.
Data set [2] deals with U2OS. Put plainly: Incucyte cell viability with U2OS. Conditions: human, 10 µM, compound concentration 10 uM.
The test system of data set [3] is HEK-293T. The experiment in a line: Incucyte cell viability with HEK293T. Conditions: human, 10 µM, compound concentration 10 uM.
[4] abbreviates: 0 h, replicate number 1, timepoint 0 hours.
The mark [5] stands for this setting: 6 h, replicate number 2, timepoint 6 hours.
[6] abbreviates: 12 h, replicate number 1, timepoint 12 hours.
The mark [7] stands for this setting: 12 h, replicate number 2, timepoint 12 hours.
The mark [8] stands for this setting: 18 h, replicate number 1, timepoint 18 hours.
The mark [9] stands for this setting: 24 h, replicate number 1, timepoint 24 hours.
The mark [10] stands for this setting: 24 h, replicate number 2, timepoint 24 hours.
[11] abbreviates: 6 h, replicate number 1, timepoint 6 hours.
The mark [12] stands for this setting: 0 h, replicate number 2, timepoint 0 hours.
[13] abbreviates: 18 h, replicate number 2, timepoint 18 hours.

The source of these data is ChEMBL document CHEMBL4689842, “EUbOPEN Chemogenomics Library wave 1” (2021).

Molecules are shown by their SMILES.
Further: filed as whole numbers so only -1 and 0 and 1 occur.

Regarding `COc1cc2c(cc1NS(=O)(=O)c1ccc(Br)cc1C)n(C)c(=O)n2C`, the “Growth Rate” value is on record as 0 in data set [1] (setting [4]); 0 in data set [1] (setting [5]); 1 in data set [1] (setting [6]); 0 in data set [1] (setting [7]); 1 in data set [1] (setting [8]); 1 in data set [1] (setting [9]). Also, the “Growth Rate” value in data set [1] (setting [10]) stood at 0; in data set [2] (setting [4]) it was 0; in data set [2] (setting [11]), 1; in data set [2] (setting [6]) it was 1; in data set [2] (setting [8]), 1; in data set [2] (setting [9]), 1. For the same molecule, the “Growth Rate” value came out at 1 in data set [3] (setting [4]); 0 in data set [3] (setting [12]); 0 in data set [3] (setting [11]); 0 in data set [3] (setting [6]); 0 in data set [3] (setting [8]); 0 in data set [3] (setting [9]).
As for `CCOc1cn(-c2ccc(F)cc2C)nc1C(=O)Nc1ccc(Oc2ccnc3cc(OC)c(OC)cc23)c(F)c1`, the “Growth Rate” value in data set [1] (setting [4]) is recorded as 1; in data set [1] (setting [11]) it was 0; in data set [1] (setting [5]), 1; in data set [1] (setting [6]), 0; in data set [1] (setting [7]), 1; in data set [1] (setting [8]), 0. Further, the “Growth Rate” value in data set [1] (setting [13]) is recorded as 1; in data set [1] (setting [9]) it was 0; in data set [1] (setting [10]) it was 1; in data set [2] (setting [6]), 1; in data set [2] (setting [8]), 1; in data set [2] (setting [9]) it was 1. The “Growth Rate” value in data set [3] (setting [4]) was 0; in data set [3] (setting [11]) it was 1; in data set [3] (setting [5]) it was 0; in data set [3] (setting [7]), 0; in data set [3] (setting [13]) it was 1; in data set [3] (setting [9]), 1. Besides, in data set [3] (setting [10]), the “Growth Rate” value stood at 0.
With `CC(C)Oc1ccc(-c2c[nH]cc2CN(C)CCN)cc1`, the “Growth Rate” value in data set [1] (setting [4]) is recorded as 0; in data set [1] (setting [5]), 0; in data set [1] (setting [7]), 0; in data set [1] (setting [8]), 1; in data set [1] (setting [13]) it was 0; in data set [1] (setting [9]), 1. Besides, the “Growth Rate” value in data set [1] (setting [10]) is listed as 0; in data set [2] (setting [4]) it was 0; in data set [2] (setting [11]), 0; in data set [2] (setting [6]), 1; in data set [2] (setting [8]) it was 0; in data set [2] (setting [13]), 1. The “Growth Rate” value in data set [2] (setting [9]) came to 0; in data set [2] (setting [10]) it was 1; in data set [3] (setting [4]), 0; in data set [3] (setting [12]) it was 1; in data set [3] (setting [10]) it was 1.
As to `O=C(NCC(=O)N1CCCC1)Nc1ccc2cnccc2c1`, the “Growth Rate” value in data set [1] (setting [12]) is listed as 0; in data set [1] (setting [11]), 0; in data set [1] (setting [6]), 0; in data set [1] (setting [7]) it was 1; in data set [1] (setting [8]), 0; in data set [1] (setting [13]) it was 1. Further, the “Growth Rate” value turned out to be 0 in data set [1] (setting [9]); 1 in data set [1] (setting [10]); 0 in data set [2] (setting [4]); 1 in data set [2] (setting [11]); 0 in data set [2] (setting [5]); 1 in data set [2] (setting [6]). The “Growth Rate” value in data set [2] (setting [7]) was found to be 0; in data set [2] (setting [8]) it was 1; in data set [2] (setting [9]), 1; in data set [3] (setting [4]), 0; in data set [3] (setting [5]), 0; in data set [3] (setting [7]), 0. The “Growth Rate” value in data set [3] (setting [13]) is 1; in data set [3] (setting [9]), 1; in data set [3] (setting [10]), 0.
Take `O=C1CCc2cc(Nc3cc(OC4CCOCC4)c([N+](=O)[O-])cc3Cl)ccc2N1`: the “Growth Rate” value in data set [1] (setting [12]) worked out at 0; in data set [1] (setting [11]), 0; in data set [1] (setting [6]), 0; in data set [1] (setting [7]), 1; in data set [1] (setting [8]) it was 0; in data set [1] (setting [9]) it was 0. Moreover, the “Growth Rate” value amounted to 0 in data set [2] (setting [4]); 0 in data set [2] (setting [11]); 1 in data set [2] (setting [5]); 0 in data set [2] (setting [6]); 1 in data set [2] (setting [7]); 0 in data set [2] (setting [8]). The “Growth Rate” value in data set [2] (setting [9]) amounted to 0; in data set [2] (setting [10]) it was 1; in data set [3] (setting [4]), 0; in data set [3] (setting [12]), 1; in data set [3] (setting [5]), 1; in data set [3] (setting [7]), 1. In addition, the “Growth Rate” value in data set [3] (setting [10]) came to 1.
